Measured values published in patent US20200345021A1, “METHOD AND SYSTEM FOR ENHANCING THE EFFICACY USING IONIZED/A[…] PEROXIDE IN REDUCING MICROBIAL POPULATIONS, METHOD OF USE THEREOF” (priority 2019, published 2020).
Read-outs that look alike come from different tables or passages of the source. Marks after values point to notes of the source that are not given here.

Experiments:
Salmonella Typhimurium = type: cell-based; conditions: for Reductions of Salmonella, range over the fresh produce items: all tested produce items and surfaces, optimized conditions
Text: (§1) To minimize the risk of possible bacteria becoming airborne during treatments, attenuated and non-pathogenic bacteria were used in the study. Two strains of non-pathogenic S. Typhimurium (ATCC 53647 and 53648) and three strains of L. innocua (ATCC 33090, ATCC 51742 and ATCC BAA680) were obtained from American Type Culture Collection (ATCC) (Manassas, Va., USA). Further studies used E. coli O157:H7 (ATCC 700728), S. Typhimurium (ATCC 53647 and 53648), and L. innocua (ATCC 33090) obtained from American Type Culture Collection (ATCC) (Manassas, Va., USA) and maintained as a part of the culture collection at the USDA Eastern Regional Research Center (Wyndmoor, Pa. USA). The bacteria were made to be resistant to nalidixic acid by successive growth in Trypic Soy Broth (TSB) (Difco, Sparks, Md., USA) with increasing nalidixic acid concentrations. All strains were stored at −80° C. in 1 mL of TSB containing 10% glycerol. Working cultures of S. Typhimurium and L. innocua were maintained in 9 mL TSB (supplemented with 100 μg/mL nalidixic acid for S. Typhimurium) at 4° C. after incubating at 37° C. for […], respectively, and sub-cultured each time.
(§2) Each strain of S. Typhimurium and L. innocua was cultured in 9 mL TSB (supplemented with 100 μg/mL nalidixic acid for S. Typhimurium) and incubated at 37° C. for 40 h and 48 h, respectively, harvested by centrifugation at 4000×g for 10 min at 4° C., and resuspended in 9 mL sterile Buffered Peptone Water (BPW; Difco). The pellets were resuspended in BPW to form cell suspensions with a final concentration of 108˜10^9 CFU/mL. Subsequently, suspended pellets of two strains of Salmonella and three strains of L. innocua were combined to obtain two separate culture cocktails.
(§3) Grape tomatoes, granny smith apples, romaine lettuce and cantaloupes were purchased from local markets (Philadelphia, Pa., USA) and kept at 10° C. prior to use. Fruits and vegetables were removed from 10° C. refrigeration and equilibrated to ambient temperature before being inoculated. Romaine lettuce was divided into upper green leaf and midrib tissues. Six tomatoes, six pieces (2×2 cm) of apple skins, five pieces (3×3 cm) of Romaine lettuce upper leaves, five pieces (3 cm length) of Romaine lettuce midrib area and six pieces (2×2 cm) of cantaloupe rinds with 2×3 mm thickness of flesh were used for each treatment per replicate. Bach piece w as spot inoculated with 10 μL of Salmonella and L. innocua by depositing droplets with a micropipette. The inoculated samples were dried in a bio-hood for 1 h (for tomato surfaces, romaine lettuce, apple skins and cantaloupe rinds) or 2 h (for tomato stem scars) at ambient temperature.
(§4) Produce items were placed onto a sterile test tube rack with the inoculated area facing up and the rack with produce pieces were placed inside of a treatment chamber (12×12×24 inch).
(§5) Therefore, each kind of produce was treated with and without cold plasma ionized under the same optimized conditions.
(§6) After each treatment, the tomato stem scars and surfaces with the inoculated bacteria were removed using a pair of sterile scissors. Each type of produce item from the same treatment was combined (total weight: 1.51±0.29 g for tomato stem scars; 2.07±0.15 g for tomato surfaces; 6.37±0.92 g for apple skins; 1.62±0.34 g for Romaine lettuce upper leaves: 13.30±2.97 g for Romaine lettuce midrib tissues: 9.58±1.26 g for cantaloupe rinds) and transferred into an 80 mL filtered stomacher bag. After addition of 30 mL BBL buffered peptone water into the bag, the sample in the bag was homogenized using a mini blender (Mini Mix CC, Interscience laboratories Inc., Woburn, Mass., USA) for 2 min at a setting of 4. […] Tryptic Soy Agar with 200 μg/mL pyruvate acid and 100 μg/mL nalidixic acid (TSA-PN) and PALCAM Agars (Difco) were used for the enumeration of S. Typhimurium and L. innocua, respectively.

Listeria innocua = test: Effect of cold plasma activation on efficacy of ionized/aerosolized H2O2 against Listeria innocua (Study 2); type: cell-based; conditions: for Reductions of Listeria on all types and surfaces of fresh produce except the tomato stem scar area: optimized conditions
Text: as §1, §2, §3, §4, §5, §6

yeast and mold = conditions: for Yeast and mold count: not inoculated
Procedure: (§7) The untreated (control) and treated samples were placed separately in a Stomacher bag with 20˜100 ml of neutralizing buffer and pummeled at 260 rpm for 2 mm using Stomacher (Interscience Laboratories Inc.). Decimal dilutions of the samples were made with 0.1% peptone (Difco) and aliquots (0.1 or 1 ml) were spread plated in duplicate onto TSA with incubation at 37° C. for 24 h for the enumeration of total aerobic plate count (APC), and onto Dichloran Rose Bengal Chlortetracycline (DRBC, Difco) agar with incubation at 25° C. for 5 days for enumeration of yeast and mold. DRBC plates were wrapped with aluminum foil to […]. Experiments were conducted independently 8 times. Colonies were counted and reported as log CFU/piece.
(§8) Produce items were placed onto a sterile test tube tack with inoculated area facing up. […] The distance and voltage between the two electrodes were 9 mm and 17 kV, respectively. […] After 45 s treatment, the chamber was sealed for 30 mins (dwell time) before removal of the fresh produce items. Experiment; were repeated three times.

[1] = test system: total aerobic plate count (APC), native microorganisms; conditions: for Total plate count: not inoculated
Procedure: as §7, §8

[2] = Cantaloupe rind, 30 s spray time + 30 min dwell, listed as H2O2 + cold plasma
[3] = Romaine lettuce-midrib, 30 s spray time + 30 min dwell, listed as H2O2 + cold plasma
[4] = Romaine lettuce-upper leaf, 30 s spray time + 30 min dwell, listed as H2O2 + cold plasma
[5] = Tomato-stem scar, three cycles of 20 s spray time plus 20 min dwell time, listed as H2O2 + cold plasma
[6] = Tomato-surface, 8 s spray time + 30 min dwell, listed as H2O2 + cold plasma
[7] = listed as hydrogen peroxide (H2O2) with cold plasma

SMILES: OO [H2O2, hydrogen peroxide]
- Populations of Salmonella Typhimurium (Salmonella Typhimurium; [2]): 3.76 ± 0.53^c log CFU/piece
- Reductions of Salmonella Typhimurium (Salmonella Typhimurium; [2]): 2.61 ± 0.53^x log CFU/piece
- Reductions of Salmonella Typhimurium (Salmonella Typhimurium; Granny Smith apples, 8 s spray time + 30 min dwell, listed as H2O2 + cold plasma): 5.50 ± 0.19^x log CFU/piece
- Reductions of Salmonella Typhimurium (Salmonella Typhimurium; Granny Smith apples, 8 s spray time + 30 min dwell, listed as iHP): > 5 log CFU/piece
- Populations of Salmonella Typhimurium (Salmonella Typhimurium; [3]): 2.54 ± 0.32^c log CFU/piece
- Reductions of Salmonella Typhimurium (Salmonella Typhimurium; [3]): 3.40 ± 0.32^x log CFU/piece
- Populations of Salmonella Typhimurium (Salmonella Typhimurium; [4]): 3.54 ± 0.11^c log CFU/piece
- Reductions of Salmonella Typhimurium (Salmonella Typhimurium; [4]): 2.88 ± 0.11^x log CFU/piece
- Populations of Salmonella Typhimurium (Salmonella Typhimurium; [5]): 3.60 ± 0.70^c log CFU/piece
- Reductions of Salmonella Typhimurium (Salmonella Typhimurium; [5]): 2.35 ± 0.30^x log CFU/piece
- Reductions of Salmonella Typhimurium (Salmonella Typhimurium; [6]): 5.28 ± 0.49^x log CFU/piece
- Reductions of Salmonella Typhimurium (Salmonella Typhimurium; Tomato-surface, 8 s spray time + 30 min dwell, listed as iHP): > 5 log CFU/piece
- Reductions of Salmonella, range over the fresh produce items (Salmonella Typhimurium; [7]): 2.35-5.50 log CFU/piece
- Reductions of Salmonella, range over the fresh produce items (Salmonella Typhimurium; listed as iHP): 2.35-5.50 log CFU/piece
- Listeria reductions for cantaloupes and two locations on lettuces (Listeria innocua): 2.61 to 3.40 log CFU/piece
- Populations of Listeria innocua (Listeria innocua; Cantaloupe rind, 30 s spray time + 30 min dwell, ND1: not detectable (detection limit 0.70 log CFU/piece), listed as H2O2 + cold plasma): ND1^c
- Reductions of Listeria innocua (Listeria innocua; [2]): 5.10 ± 0.30^x log CFU/piece
- Populations of Listeria innocua (Listeria innocua; Granny Smith apple, 8 s spray time + 30 min dwell, ND1: not detectable (detection limit 0.70 log CFU/piece), listed as H2O2 + cold plasma): ND1^c
- Reductions of Listeria innocua (Listeria innocua; Granny Smith apple, 8 s spray time + 30 min dwell, listed as H2O2 + cold plasma): 5.24 ± 0.22^x log CFU/piece
- Populations of Listeria innocua (Listeria innocua; Romaine lettuce-midrib, 30 s spray time + 30 min dwell, ND2: not detectable (detection limit 0.76 log CFU/piece), listed as H2O2 + cold plasma): ND2^c
- Reductions of Listeria innocua (Listeria innocua; [3]): 5.21 ± 0.11^x log CFU/piece
- Populations of Listeria innocua (Listeria innocua; Romaine lettuce-upper leaf, 30 s spray time + 30 min dwell, ND2: not detectable (detection limit 0.76 log CFU/piece), listed as H2O2 + cold plasma): ND2^c
- Reductions of Listeria innocua (Listeria innocua; [4]): 5.19 ± 0.08^x log CFU/piece
- Populations of Listeria innocua (Listeria innocua; [5]): 2.94 ± 0.89^c log CFU/piece
- Reductions of Listeria innocua (Listeria innocua; [5]): 2.62 ± 0.89^x log CFU/piece
- Reductions of Listeria innocua (Listeria innocua; Tomato-stem scar, three cycles of 20 s spray time plus 20 min dwell time, listed as iHP): 2.36 log CFU/piece
- Populations of Listeria innocua (Listeria innocua; Tomato-surface, 8 s spray time + 30 min dwell, ND1: not detectable (detection limit 0.70 log CFU/piece), listed as H2O2 + cold plasma): ND1^c
- Reductions of Listeria innocua (Listeria innocua; [6]): 5.16 ± 0.20^x log CFU/piece
- Reductions of Listeria on all types and surfaces of fresh produce except the tomato stem scar area (Listeria innocua; listed as cold plasma-activated hydrogen peroxide (H2O2)): > 5 log CFU/piece
- Reductions of Listeria on all types and surfaces of fresh produce except the tomato stem scar area (Listeria innocua; [7]): more than 5 log CFU/piece
- Reductions of Listeria on all types and surfaces of fresh produce except the tomato stem scar area (Listeria innocua; listed as iHP): more than 5 log CFU/piece
- Yeast and mold count (yeast and mold; cantaloupe): 4.7 +/− 0.9a Log CFU/piece
- Reduction of yeast and mold count (yeast and mold; spinach): 2.2 log
- Yeast and mold count (yeast and mold; spinach): 4.2 +/− 2.0b Log CFU/piece
- Reduction of yeast and mold count (yeast and mold; tomato): 3.9 log
- Yeast and mold count (yeast and mold; tomato): 2.2 +/− 1.5b Log CFU/piece
- Total plate count ([1]; cantaloupe): 4.6 +/− 1.2a Log CFU/piece
- Reduction in APC ([1]; spinach leaves): 1.3 log
- Total plate count ([1]; spinach): 4.7 +/− 1.3b Log CFU/piece
- Total plate count ([1]; tomato): 5.4 +/− 0.5b Log CFU/piece
- Reduction in APC ([1]; tomatoes): 0.5 log
